For 6 compounds, Ki results are on record in paper PMC7898615 (Chemistry (Weinheim an Der Bergstrasse, Germany), 2020).

This experiment has as its target T1, tryptophan synthase (TS) complex, TrpA:TrpB (Salmonella enterica, UniProt P0A2K1).
T1 sequence (P0A2K1 1-397): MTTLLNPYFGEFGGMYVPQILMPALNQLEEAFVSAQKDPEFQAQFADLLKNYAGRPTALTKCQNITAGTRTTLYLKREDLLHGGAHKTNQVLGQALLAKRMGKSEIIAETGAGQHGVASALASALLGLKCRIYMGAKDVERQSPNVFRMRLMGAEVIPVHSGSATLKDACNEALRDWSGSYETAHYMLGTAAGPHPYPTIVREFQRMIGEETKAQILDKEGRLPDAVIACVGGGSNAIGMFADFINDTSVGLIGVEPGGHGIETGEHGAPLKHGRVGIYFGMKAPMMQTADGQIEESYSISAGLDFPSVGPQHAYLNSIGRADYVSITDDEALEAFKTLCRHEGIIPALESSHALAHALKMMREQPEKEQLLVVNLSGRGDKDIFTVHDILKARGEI
T1 sequence (P00929 1-268 partner): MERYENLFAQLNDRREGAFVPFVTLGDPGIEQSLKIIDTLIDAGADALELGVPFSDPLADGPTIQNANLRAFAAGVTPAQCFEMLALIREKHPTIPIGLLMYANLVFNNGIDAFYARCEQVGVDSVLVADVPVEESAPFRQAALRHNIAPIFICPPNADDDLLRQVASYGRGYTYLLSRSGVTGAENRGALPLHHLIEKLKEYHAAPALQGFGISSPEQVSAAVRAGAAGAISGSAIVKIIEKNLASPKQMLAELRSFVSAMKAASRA
Description: coupled VioA/HRP assay of Trp formation, […] nm, global fit. The class given is biochemical.

Where only a bound is given, the exact number is not on record here.

One may read the Ki as a measure of affinity in units of concentration, obtained from inhibition or displacement. The low end stands for higher affinity, the high end for lower affinity. `O=C(NCCCCOP(=O)(O)O)c1ccc(/N=N\c2ccccc2)cc1` [4d, 4 d (Z isomer)] displayed a Ki of over 4000 µM.

Compound `O=C(NCCCCOP(=O)(O)O)c1ccc(/N=N/c2ccccc2)cc1` [4d, (E)‐4‐(4‐(phenyldiazenyl)benzamido)butyl dihydrogen phosphate] registered a Ki of 640 ± 80 µM.

For `O=C(NCCCCCOP(=O)(O)O)c1ccc(/N=N\c2ccccc2)cc1` [4e, 4 e (Z isomer)], the affinity, expressed as Ki, was 930 ± 420 µM.

As to `O=C(NCCCCCOP(=O)(O)O)c1ccc(/N=N/c2ccccc2)cc1` [4e, (E)‐5‐(4‐(phenyldiazenyl)benzamido)pentyl dihydrogen phosphate], the Ki was found to be 180 ± 40 µM.

As for `O=C(NCCCCCCOP(=O)(O)O)c1ccc(/N=N\c2ccccc2)cc1` [4f, 4 f (Z isomer)], the Ki stood at 100 ± 10 µM.

`O=C(NCCCCCCOP(=O)(O)O)c1ccc(/N=N/c2ccccc2)cc1` [4f, (E)‐6‐(4‐(phenyldiazenyl)benzamido)hexyl dihydrogenphosphate] came in with a Ki of 50 µM.
